Measurements from US12691100B2, “NMT inhibitor treatment of a senescence-associated disease or disorder of the liver” (Imperial College Innovations Limited, priority 2020, dated 2026).

What was measured:
[1] = Blood markers (Vetscan) in a separate cohort of old mice; assay type: in vivo, female C57/BL6 mice; settings: ~19 mo females, before 4th round, Compound 2 10 mg/kg, Compound 3 25 mg/kg, versus vehicle
Description: Blood was collected prior to each round of injection for physiological assessments. Mice were allowed to rest 4 weeks prior to being culled and organs collected for freezing in OCT, paraffin embedding and snap-freezing for RNA extraction.
(§1) For analysis of immune cell composition in whole blood, tail-vein blood was collected 2 days after last treatment. Whole blood was diluted in saline to a volume of […] and ran on a Sysmex XE2100 automated cell counter. Blood glucose levels were determined by collecting whole-blood from tail vein into heparinised tubes (Abraxis), 120-140 μL of whole-blood to be loaded onto a comprehensive diagnostic profile reagent rotor (Abraxis) and run on a VetScan VS2 Chemistry Analyzer (Abraxis: 500-7123).
Further experiments were performed on a separate cohort of old mice. […] This regimen was repeated 4 more times and blood was collected for Vetscan measurements prior to the 4th round of treatment (FIG. 19). At that stage, ~19 mo females presented elevated levels of ALT, amylase and glucose in blood when compared with young mice (FIG. 20A).

[2] = Liver lipids (Oil Red O) and blood glucose in the same cohort of old mice; assay type: in vivo, C57BL/6J female mice; settings: 10 mg/kg i.p.
Description: as §1
Oil Red O staining for lipids was carried out on liver tissue in OCT was snap-frozen in liquid N2 and cryosectioned (15 μM). Sections were equilibrated to RT for 10 min and then stained with 0.5% Oil Red O solution (w/v, in isopropanol, Sigma, O1391) for 5 min, rinsed in tap water and counterstained with Mayer's hematoxylin for 30 s. Then sections were again rinsed in tap water for 30 min and coverslips mounted. Images were acquired on Zeiss AxioScan Z.1 and ImageJ quantification of Oil-red stain area relative to background tissue area performed for 3 fields per section.
To understand what effects are associated with the treatment with NMT inhibitors in vivo, we analysed different parameters in the same cohort of old mice described in FIG. 17A. First, we looked into the accumulation of lipid droplets in the liver using Oil Red O staining. These are an indication of hepatic steatosis, and importantly, elimination of senescent cells has been previously shown capable to reduce steatosis.
Other pathological change observed in old mice is the presence of increased levels of glucose in blood. This can be related with diabetes or metabolic disease. Importantly, both pathologies have been associated with the presence of senescent cells.

[3] = tested on: IMR90 cells; test: Senolytic survival assay, doxorubicin-induced senescence; assay type: cell-based, human; settings: doxorubicin or DMSO; compounds added 7 days after induction; read 7 days later; FIGS. 3A-B
Description: IMR90 cells were used to generate inducible ER:RAS (hereinafter iRAS) cells to model Oncogene induced senescence (OIS), through retroviral infection of pLNC-ER:RAS-neo into IMR90 cells followed by selection with Neomycin. IMR90 cells containing the pLNC-ER:RAS plasmid backbone pLXSN were infected in parallel to assess leakiness in the pLNC-ER:RAS system. Treatment with 100 nM 4OHT (Sigma, in DMSO) was used to induce IMR90 ER:RAS cells to undergo oncogene induced senescence (OIS). […]
High-throughput microscopy survival assay—To assess senolytic effect of drugs, cells were cultured for 7 days, culture media was changed to DM0.5 media and drugs in DMSO were added (<5% v/v final concentration), drugs were replenished after 3 days if assay length was longer than 72 h. […] Image acquisition of DAPI stained cells was performed on an automated InCell Analyser 2000 (GE Healthcare®) and high-content analysis on the InCell Investigator 2.7.3 software used to quantify number of DAPI positive cells per well. […] Survival was measured as cell counts relative to DMSO treated quiescent or senescent cells.
IMR90 cells were treated with doxorubicin (to induce senescence), or DMSO (as a control). […] Senolytic activity of inhibitors was determined 7 days after adding the drugs with replenishment after 3 days, cells were fixed, imaged and cells numbers were quantified using high throughput microscopy. […]

SMILES | ALT in blood ([1]; FIG. 20A) | Amylase in blood ([1]; FIG. 20B) | Glucose in blood ([1]; FIG. 20C) | Glucose in blood, fasted mice ([2]; old mice fasted, FIG. 18C) | Glucose in blood, fed mice ([2]; old mice kept fed, FIG. 18B) | Accumulation of lipids in the liver (Oil Red O staining) ([2]; ~26 month female mice, FIG. 18A) | Survival (cell counts relative to DMSO), senescent versus control cells [3]
Cc1c(NS(=O)(=O)c2c(Cl)cc(-c3ccnc(N4CCNCC4)c3)cc2Cl)c(CC(C)C)nn1C [Compound 2] | lower level | lower level | lower level | lower levels of glucose | lower levels of glucose | reduced accumulation of lipids in the liver | –
Cc1nn(C)c(C)c1CCOc1c(-c2ccc3c(c2)c(CN(C)C)nn3C)ccc(F)c1F [Compound 1, 1-(5-(3,4-difluoro-2-(2-(1,3,5-trimethyl-1H-pyrazol-4-yl)ethoxy)phenyl)-1-methyl-1H-indazol-3-yl)-N,N-dimethylmethanamine] | – | – | – | – | – | – | selectively kill senescent cells induced to senescence by doxorubicin
